Here are results for four molecules from patent US20240368157A1, “FORMS AND COMPOSITIONS OF A JAK2 INHIBITOR” (Ajax Therapeutics, Inc., priority 2023, published 2024).

In brackets after ≈: the same amount, converted by molar mass. Read-outs that look alike come from different tables or passages of the source. Marks after values point to notes of the source that are not given here.

Data set [1] in a line: Interconversion slurry experiments. The settings on record: interconversion slurries, ambient temperature to 65° C.; listed as Compound 1 Form I.
Description: Mixtures of Form H and Form I with Form B were utilized in these interconversion slurry experiments. […] The interconversion slurries were performed at ambient and elevated (65° C.) temperatures in various solvents and solvent mixtures.
Data set [2] is described as follows: Exposure experiments at high relative humidity. Type of data set: physicochemical. The following applies: RT, 17 days. The method, then: In a series of exposure experiments, Compound 1 Lot I was exposed to high relative humidity. Generally, approx. 50 mg Compound 1 was transferred to vials, and the vials were placed open in chambers containing saturated aqueous solutions of various salts, which are known to generate various relative humidity levels in the chambers. See, e.g., “Standard Practice for Maintaining Constant Relative Humidity by Means of Aqueous Solutions” ASTM Standard E 104-85 (1996); “Humidity Fixed Points of Binary Saturated Aqueous Solutions” Greenspan, L. J. Res. Natl. Bur. Stand., Sect. A […], 81A, 89-96; “Saturated Salt Solutions for Maintaining Specified Relative Humidities” Nyqvist, H. E. Int. J. Pharma. Technol. Prod. Manuf. 1983, 4, 47-48; and “Evaluation of Relative Humidity Values for Saturated Aqueous Salt Solutions Using Osmotic Coefficients Between 50 and 100° C.” Moisture Humidity, Proc. Int. Symp. 1985, 577-96.

Data set [3] is described as follows: Approximate solubility estimates (solvent incremental addition, visual observation). Type of data set: physicochemical. The following applies: for solubility: thermodynamic from solid. The protocol: Approximate solubility estimates of Compound 1 Lot I were ascertained using the solvent incremental addition method and visual observation (Table 2.1). […] Approximate solubilities were calculated based on the total solvent used to achieve a solution, as judged by visual observation. Actual solubilities may be greater because of the volume of solvent portions utilized or a slow rate of dissolution. […] If dissolution occurred at the first aliquot, the value was reported as “>”

Data set [4] is described as follows: Dynamic vapor sorption (DVS). The class given is physicochemical. The following applies: for Hysteresis: in % (unit assumed); for weight gain during sorption: DVS. The method, then: Moisture sorption/desorption data were collected on a Surface Measurement System DVS Intrinsic instrument. Samples were not dried prior to analysis. Sorption and desorption data were collected over a range from 5% to 95% RH to 5% RH at 10% RH increments under a nitrogen purge. The equilibrium criterion used for analysis was less than 0.0100% weight change in 5 minutes with a maximum equilibration time of 3 hours. Data were not corrected for the initial moisture content of the samples.

With `CN(C)C(=O)Nc1cc(Oc2cnc3nc(Nc4cc(C(F)(F)F)cn(C)c4=O)n(C)c3c2C#N)ccn1` [Form I], the “relative stability of anhydrous forms” value in data set [1] is reported as “metastable form with respect to Form B”.
The term solubility denotes the dissolved amount per volume that the medium holds. Regarding `CN(C)C(=O)Nc1cc(Oc2cnc3nc(Nc4cc(C(F)(F)F)cn(C)c4=O)n(C)c3c2C#N)ccn1` [Compound 1 Lot I], the “XRPD Result” value was “Forms B + C + larger peaks” in data set [2] (75% RH) and “Forms B + C + peaks” in data set [2] (97% RH). The weight gain in data set [2] (75% RH) came to 0.56% weight gain; in data set [2] (97% RH) it was 0.71% weight gain. Moreover, the solubility was 1000 µg/mL (≈ 1900 µM) in data set [3] (2-butanone (MEK), organic solvent or mixture, 2-butanone (MEK), ambient, read-out: Solubility); 1000 µg/mL (≈ 1900 µM) in data set [3] (AcOH:H2O (20:80), aqueous with cosolvent or surfactant or cyclodextrin, AcOH:H2O (20:80), aw = 0.94, ambient, read-out: Solubility); 14000 µg/mL (≈ 26500 µM) in data set [3] (AcOH:H2O (50:50), aqueous with cosolvent or surfactant or cyclodextrin, AcOH:H2O (50:50), aw = 0.84, ambient, read-out: Solubility); over 51000 µg/mL in data set [3] (AcOH:H2O (85:15), organic solvent or mixture, AcOH:H2O (85:15), aw = 0.51, ambient, read-out: Solubility); 2000 µg/mL (≈ 3790 µM) in data set [3] (CHCl3, organic solvent or mixture, CHCl3, ambient, read-out: Solubility); 8000 µg/mL (≈ 15200 µM) in data set [3] (DMA, organic solvent or mixture, DMA, ambient, read-out: Solubility). Also, the solubility in data set [3] (DMSO, organic solvent or mixture, DMSO, ambient, read-out: Solubility) is 6000 µg/mL (≈ 11400 µM); in data set [3] (EtOAc, organic solvent or mixture, EtOAc, ambient, read-out: Solubility), under 1000 µg/mL; in data set [3] (EtOH:H2O (90:10), organic solvent or mixture, EtOH:H2O (90:10), aw = 0.49, ambient, read-out: Solubility), 1000 µg/mL (≈ 1900 µM); in data set [3] (MIBK, organic solvent or mixture, MIBK, ambient, read-out: Solubility), under 1000 µg/mL; in data set [3] (MeCN, organic solvent or mixture, MeCN, ambient, read-out: Solubility), under 1000 µg/mL; in data set [3] (MeOH, organic solvent or mixture, MeOH, ambient, read-out: Solubility), under 1000 µg/mL. For the same molecule, the solubility is under 1000 µg/mL in data set [3] (MeOH:CHCl3 (50:50), organic solvent or mixture, MeOH:CHCl3 (50:50), ambient, read-out: Solubility); 37000 µg/mL (≈ 70100 µM) in data set [3] (MeOH:DCM (1:3), organic solvent or mixture, MeOH:DCM (1:3), ambient, read-out: Solubility); 1000 µg/mL (≈ 1900 µM) in data set [3] (MeOH:H2O (90:10), organic solvent or mixture, MeOH:H2O (90:10), aw = 0.29, ambient, read-out: Solubility); 8000 µg/mL (≈ 15200 µM) in data set [3] (NMP, organic solvent or mixture, NMP, ambient, read-out: Solubility); 17000 µg/mL (≈ 32200 µM) in data set [3] (TFE, organic solvent or mixture, TFE, ambient, read-out: Solubility); under 1000 µg/mL in data set [3] (THF, organic solvent or mixture, THF, ambient, read-out: Solubility). Also, the solubility was over 59000 µg/mL in data set [3] (acetic acid (AcOH), organic solvent or mixture, AcOH, ambient, read-out: Solubility); 1000 µg/mL (≈ 1900 µM) in data set [3] (acetone, organic solvent or mixture, Acetone, ambient, read-out: Solubility); 2000 µg/mL (≈ 3790 µM) in data set [3] (acetone:H2O (90:10), organic solvent or mixture, acetone:H2O (90:10), aw = 0.69, ambient, read-out: Solubility); under 1000 µg/mL in data set [3] (i-PrOH, organic solvent or mixture, i-PrOH, ambient, read-out: Solubility); 1000 to 2000 µg/mL (≈ 1900 to 3790 µM) in data set [3] (organic solvent or mixture, 10% water added to acetone, ethanol, and methanol, ambient, read-out: solubility after addition of 10% water); 1000 to 8000 µg/mL (≈ 1900 to 15200 µM) in data set [3] (organic solvent or mixture, in acetone, chloroform, MEK, and aprotic solvents DMSO, DMAc, and NMP, ambient, read-out: limited solubility). The solubility in data set [3] (toluene, organic solvent or mixture, toluene, ambient, read-out: Solubility) is under 1000 µg/mL; in data set [3] (water, H2O, ambient, read-out: Solubility), under 1000 µg/mL. In addition, the “Solubility (mg/mL)” value in data set [3] (AcOH, ambient) is >59^b mg/mL.
In the case of `CN(C)C(=O)Nc1cc(Oc2cnc3nc(Nc4cc(C(F)(F)F)cn(C)c4=O)n(C)c3c2C#N)ccn1` [Compound 1 Lot II], the solubility is 4000 µg/mL (≈ 7580 µM) in data set [3] (1-BuOH:H2O (90:10), 80 °C, organic solvent or mixture, 1-BuOH:H2O (90:10), aw = 0.82, 80° C., read-out: Solubility) and 1000 µg/mL (≈ 1900 µM) in data set [3] (1-BuOH:H2O (96:4), 85 °C, organic solvent or mixture, 1-BuOH:H2O (96:4), aw = 0.49, 85° C., read-out: Solubility).
On to `CN(C)C(=O)Nc1cc(Oc2cnc3nc(Nc4cc(C(F)(F)F)cn(C)c4=O)n(C)c3c2C#N)ccn1` [Form C], for which the “Desorp Mass Change (%)” value is given as 0.028% in data set [4] (DVS cycle 1, target RH 5%); 1.354% in data set [4] (DVS cycle 1, target RH 15%); 1.757% in data set [4] (DVS cycle 1, target RH 25%); 1.927% in data set [4] (DVS cycle 1, target RH 35%); 2.061% in data set [4] (DVS cycle 1, target RH 45%); 2.161% in data set [4] (DVS cycle 1, target RH 55%). Also, the “Desorp Mass Change (%)” value in data set [4] (DVS cycle 1, target RH 65%) is given as 2.240%; in data set [4] (DVS cycle 1, target RH 75%), 2.323%; in data set [4] (DVS cycle 1, target RH 85%) it was 2.437%; in data set [4] (DVS cycle 1, target RH 95%), 2.620%. Further, the “Sorp Mass Change (%)” value in data set [4] (DVS cycle 1, target RH 5%) was determined as 0.005%; in data set [4] (DVS cycle 1, target RH 15%), 1.314%; in data set [4] (DVS cycle 1, target RH 25%), 1.741%; in data set [4] (DVS cycle 1, target RH 35%), 1.912%; in data set [4] (DVS cycle 1, target RH 45%), 2.017%; in data set [4] (DVS cycle 1, target RH 55%), 2.100%. Moreover, the “Sorp Mass Change (%)” value in data set [4] (DVS cycle 1, target RH 65%) came out at 2.178%; in data set [4] (DVS cycle 1, target RH 75%) it was 2.262%; in data set [4] (DVS cycle 1, target RH 85%), 2.375%; in data set [4] (DVS cycle 1, target RH 95%), 2.620%. Moreover, the Hysteresis in data set [4] (DVS cycle 1, target RH 15%) is given as 0.040; in data set [4] (DVS cycle 1, target RH 25%), 0.016; in data set [4] (DVS cycle 1, target RH 35%) it was 0.015; in data set [4] (DVS cycle 1, target RH 45%) it was 0.044; in data set [4] (DVS cycle 1, target RH 55%), 0.061; in data set [4] (DVS cycle 1, target RH 65%), 0.061. Besides, the Hysteresis in data set [4] (DVS cycle 1, target RH 75%) worked out at 0.061; in data set [4] (DVS cycle 1, target RH 85%), 0.062. In addition, the “weight gain during sorption” value in data set [4] (5-25% RH) worked out at 1.74%; in data set [4] (5-95% RH) it was 2.6%. Also, in data set [4] (after DVS experiment), the “XRPD pattern of the post-DVS sample” value was “consistent with Form C with slight peak shifting”.
